Conditions: Liquid, Vibrating tube method

CCO [ethanol]
mass density [kg/m3]
Conditions	278.15 K	288.15 K	298.15 K	308.15 K	318.15 K	328.15 K	338.15 K	348.15 K	358.15 K
100 kPa	801.9	793.4	784.8	776.1	767.4	758.4	749.1	739.5	729.5
1000 kPa	802.7	794.2	785.6	777	768.3	759.4	750.2	740.7	730.7
5000 kPa	805.9	797.6	789.3	780.9	772.4	763.7	754.8	745.6	736
10000 kPa	809.9	801.8	793.6	785.4	777.2	768.8	760.1	751.3	742.1
15000 kPa	813.6	805.8	797.7	789.7	781.7	773.6	765.2	756.6	747.7
20000 kPa	817.2	809.5	801.7	793.9	786	778.1	769.9	761.6	753
25000 kPa	820.6	813.1	805.3	797.8	790.1	782.4	774.4	766.4	758
30000 kPa	824	816.6	809	801.5	794	786.5	778.7	770.8	762.8
35000 kPa	827.2	819.9	812.5	805.2	797.8	790.4	782.8	775.1	767.2
40000 kPa	830.3	823.1	815.9	808.7	801.4	794.2	786.7	779.2	771.5
45000 kPa	833.3	826.3	819.2	812	804.9	797.8	790.5	783.1	775.6
50000 kPa	836.3	829.3	822.3	815.3	808.3	801.3	794.1	786.9	779.5
55000 kPa	839.1	832.3	825.4	818.5	811.6	804.7	797.7	790.5	783.3
60000 kPa	841.8	835	828.1	821.4	814.6	807.8	800.8	793.8	786.7

— the NIST ThermoML archive (doi:10.1016/j.jct.2011.10.023)
